Entries after “also recorded” stand apart in the source; their conditions may differ.
Tests used:
HSP72 = assay: Quantitative immunohistochemical analysis of HSP72 in the RGCL after 1 week of IOP elevation (Experiment 3); format: in vivo, rat; conditions: quercetin = co-administered with GGA
Method: (§1) TdT-mediated biotin-dUTP nick end labeling (TUNEL) and immunohistochemical analysis for HSP72 and HSC70 were performed.
Animals were deeply anesthetized with intramuscular injections of 0.8 ml/kg of a cocktail of 5 ml ketamine (100 mg/ml), 2.5 ml xylazine (20 mg/ml), 1.0 ml acepromazine (10 mg/ml), and 1.5 ml normal saline. Then they were transcardially perfused with 4% paraformaldehyde in 0.1 M phosphate buffer. The enucleated eyeballs were immersed in fixative for 1 hour, bisected and post-fixed overnight. The eyes were embedded in paraffin and sectioned at a four-μm thickness along the vertical meridian through the optic nerve head. After deparaffinization and hydration, a species-specific Vectastain ABC kit (Vector Laboratories, Inc., Burlingame, Calif.) was chosen to match the species of primary antibody and the manufacturer's procedures were followed. The tissue sections were incubated with blocking serum solution in PBS for 1 hour. This was followed by incubation with primary antibody at 4° C overnight. The antibodies were mouse monoclonal antibody against HSP72 (1:500; StressGen Biotechnologies Corp., Victoria, British Columbia, Canada), goat polyclonal antibody against HSP72 (1:1000; Santa Cruz Biotechnology, Inc., Santa Cruz, Calif.) or rat monoclonal antibody against HSC70 (1:200; StressGen). Antigen-antibody complexes were detected by an avidin-biotin-peroxidase technique (Vectastain ABC Kit; Vector Laboratories). Diaminobenzidine (DAB) was used to produce a brown color in the target tissue and the slides were permanently mounted. As a negative control, alternate retinal section was incubated with blocking solution by replacing the primary antibody or with anti-rabbit secondary antibody by replacing the original secondary antibody.
Immunohistochemical staining was analyzed quantitatively with a computer-assisted image processing unit (Image-Pro Plus software, Media Cybernetics, Silver Spring, Md.) and the “count-measure” function. Images of immuno-stained sections were captured with a digital camera (Cool snap, RS Photometric, Tucson, Ariz.) attached to the microscope (Axio plan, Carl Zeiss, Oberkochen, Germany) at 630× magnification under oil immersion. The system was calibrated according to the supplier's manual before the analysis. For each digital image, all individual cells in the RGCL were marked by a masked examiner and the optical density of each cell was measured. The relative intensities of cells in the RGCL were measured and averaged (±SEM) to yield a single value representing one retina.

HSC70 = assay: Quantitative immunohistochemical analysis of HSC70 in the RGCL after 1 week of IOP elevation (Experiment 3); format: in vivo, rat; conditions: among all the groups, 1 week after laser
Method: as §1
Animals were deeply anesthetized with intramuscular injections of 0.8 ml/kg of a cocktail of 5 ml ketamine (100 mg/ml), 2.5 ml xylazine (20 mg/ml), 1.0 ml acepromazine (10 mg/ml), and 1.5 ml normal saline. Then they were transcardially perfused with 4% paraformaldehyde in 0.1 M phosphate buffer. The enucleated eyeballs were immersed in fixative for 1 hour, bisected and post-fixed overnight. The eyes were embedded in paraffin and sectioned at a four-μm thickness along the vertical meridian through the optic nerve head. […] Antigen-antibody complexes were detected by an avidin-biotin-peroxidase technique (Vectastain ABC Kit; Vector Laboratories). […]
Immunohistochemical staining was analyzed quantitatively with a computer-assisted image processing unit (Image-Pro Plus software, Media Cybernetics, Silver Spring, Md.) and the “count-measure” function. […] For each digital image, all individual cells in the RGCL were marked by a masked examiner and the optical density of each cell was measured. The relative intensities of cells in the RGCL were measured and averaged (±SEM) to yield a single value representing one retina.

optic nerve axons = assay: Grading of optic nerve injury in rat glaucoma model (Experiment 2); format: in vivo
Method: GGA was then given twice a week at the same dose until euthanasia. Sustained elevation of intraocular pressure (IOP) was maintained by performing trabecular laser photocoagulation three weeks after the first photocoagulation. […] IOP and body weight were measured once a week. After 5 weeks of IOP elevation, the number of retrogradely labeled RGCs with dextran tetramethylrhodamine (DTMR) was counted (n=53). The grading of optic nerve injury and the counting of cresyl violet-stained cells in the retinal ganglion cell layer (RGCL) was also performed (n=54).
Rats were anesthetized with intramuscular injections of 0.8 ml/kg of the anesthetic cocktail described above. A previously published procedure was modified to produce chronic moderately elevated IOP unilaterally, while the untreated contralateral eye served as the comparative control.40 Animals were injected intracamerally with 10 μl of 35% India ink (Becton Dickinson, Cockeysville, Md.) in 0.01 M PBS after removing a similar volume of aqueous. At the end of the procedure, Tobrex ophthalmic ointment (tobramycin 0.3%; Alcon, Fort Worth, Tex.) was applied topically. Five days after intracameral injection of India ink, a dark band at the limbus was noted due to the aggregation of carbon particles in the trabecular meshwork.38 After anesthesia, approximately 200 laser burns were delivered ab externo to the pigmented trabecular band at laser settings of 200 μm diameter, 200 mW power and 0.2 seconds duration. Three weeks after the first laser treatment, another trabecular laser photocoagulation was performed without further injection of ink.
To examine the effect on RGC axons, optic nerve injury was evaluated with an established method.41 After 5 weeks of IOP elevation, deeply anesthetized animals were perfused with a solution of 4% paraformaldehyde and 1% glutaraldehyde. Optic nerve segments […] behind the globe were dissected, washed, postfixed with 5% glutaraldehyde, dehydrated, and embedded. One μm-thick sections were cut and stained with 1% toluidine blue. Optic nerve cross sections were examined under light microscopy and assessed by three independent masked observers. A graded scale of optic nerve injury ranging from 1 (normal) to 5 (total degeneration) was used. Data obtained from three observers were averaged and presented as mean ±SEM.

Geranylgeranylacetone [GGA]
HSP72 expression (immunoreactive intensity) in the RGCL (HSP72; control (normal IOP) retinas vs vehicle-alone controls): increased expression of HSP72; also recorded: Increased immunoreactivity of HSP72
HSP72 expression (immunoreactive intensity) in the RGCL (HSP72; retinas with IOP elevation, 1 week): apparently further increased
expression of HSC70 in RGCL (immunoreactive intensity) (HSC70): no statistically significant difference; also recorded: No change in HSC70 immunoreactivity
effect on optic nerve injury / axonal damage (in words) (optic nerve axons; 5 weeks of IOP elevation): inhibited; also recorded: significantly ameliorated
optic nerve injury grade (optic nerve axons; 5 weeks of sustained IOP elevation, scale 1 (normal) to 5 (total degeneration)): 1.33±0.05
optic nerve injury (in words) (optic nerve axons; contralateral control eyes): no statistically significant optic nerve injury
optic nerve injury grade (optic nerve axons; contralateral control eyes, scale 1 to 5): 1.11±0.02

Source: US20050009772A1, “Methods and compositions for the treatment of glaucoma and other retinal diseases” (The Regents of the University of California, priority 2003, published 2005)
